Here are results for one compound from article PMC9367672, “In vitro differences in toddalolactone metabolism in various species and its effect on cytochrome P450 expression” (Pharmaceutical Biology, 2022).

One data set concerns DLMs. As to the kind of experiment: Enzyme kinetics of toddalolactone metabolism in dog liver microsomes (oxidative metabolism). The data set is classed as in vitro ADME, beagle dog. The settings on record: P450-catalyzed oxidation, P4 formation. The procedure:
(§1) The CYP reaction system (200 μL) consisted of 0.1 M potassium phosphate buffer (pH 7.4), an NADPH-generating system (1 mM NADPH, 10 mM G-6-P, 1 unit/mL G-6-PD, 4 mM MgCl2), and liver microsomes or recombinant human microsomes (supersomes). Each of the in vitro enzymatic assays using liver microsomes was linear with respect to incubation time and amount of protein. After a pre-incubation at 37 °C for 3 min, the reactions were initiated by adding NADP^+. After incubating for 60 min, the reactions were quenched by adding 200 μL of ice-cold acetonitrile. Samples were centrifuged at 18,000 g for 15 min at 4 °C and 10 μL of supernatant was analyzed using an HPLC system. NADPH or CYP enzyme sources were not used in the control group to ensure that the metabolic reactions were CYP- and NADPH-dependent. All incubation assays were completed in triplicate. The data are presented as mean ± standard deviation (SD).
(§2) The enzyme kinetics of toddalolactone in oxidative metabolism and glucuronidation were determined by incubating liver microsomes (0.2 mg/mL) or CYPs (15 nM) with different concentrations of toddalolactone (1–200 μM). […] The in vitro intrinsic clearance (CLint) was calculated based on the Vmax/Km ratio. Metabolites were quantified using the standard curve for toddalolactone because of the absence of metabolite standards. […]
(§3) The enzyme kinetics in oxidative metabolism and glucuronidation of toddalolactone were studied, and preliminary experiments were performed to ensure that metabolites were formed in the linear range of both reaction time and microsomal protein concentration. […] Based on the results of toddalolactone metabolism in different species, the kinetic parameter values in RLMs, DLMs, MLMs, HLMs, RAMs, MIMs, PLMs, CYP1A1 and CYP3A5 were calculated using P4, P4, P4, P4, P2, P2, P4, P4 and P4 data in oxidative metabolism, respectively. In the glucuronidation reaction, the kinetic parameter values in RLMs, MLMs, HLMs, RAMs and PLMs were calculated using P5, P6, P6, P6 and P5 data, respectively.
For orientation: Microsomes from liver hold many membrane-bound enzymes, among them those of drug oxidation.

Test in data set [1]: as above
The settings on record: beagle, dog, liver microsomes, pH 7.4; DLMs; P450-catalyzed oxidation; P4 formation; Vmax/Km. Format: in vitro ADME, beagle dog. The procedure:
as §1, §2, §3

Data set [2] is described as follows: Enzyme kinetics of toddalolactone metabolism in monkey liver microsomes (oxidative metabolism and glucuronidation). Conditions: monkey, liver microsomes, pH 7.4, MLMs, Vmax/Km. Format: in vitro ADME. Here is the method: as §1
(§4) In the UGT reaction system, liver microsomes were incubated in 200 μL of the reaction system containing 4 mM UDPGA, 5 mM MgCl2, 20 µg/mL alamethicin, and 50 mM Tris-HCl buffer (pH 7.4). After pre-incubation at 37 °C for 3 min, UDPGA was added to the mixture to initiate the reactions. The mixtures were incubated at 37 °C for 60 min, followed by the addition of 200 μL of cold methanol to terminate the reactions. After centrifugation at 18,000 g for 15 min, 10 μL of the supernatant was analyzed by HPLC.
(§5) The enzyme kinetics of toddalolactone in oxidative metabolism and glucuronidation were determined by incubating liver microsomes (0.2 mg/mL) or CYPs (15 nM) with different concentrations of toddalolactone (1–200 μM). The kinetic parameters including Km and Vmax were obtained by fitting the experimental data to the Michaelis–Menten equation (Equation (1)), biphasic kinetics equation (Equation (2)), or substrate inhibition equation (Equation (3)) (He et al. [2018]), and the results were graphically represented on Eadie–Hofstee plots. The in vitro intrinsic clearance (CLint) was calculated based on the Vmax/Km ratio. Metabolites were quantified using the standard curve for toddalolactone because of the absence of metabolite standards. All incubations were repeated in three independent experiments. Kinetic constants were expressed with mean ± SD: (1) V=Vmax×[S]/Km+[S] (2) V=Vmax1×[S]/Ks1+[S]+Vmax2×[S]/Ks2+[S] (3) V=Vmax×[S]/Ks+[S]+[S]^2/Ksi where v is the rate of reaction, Vmax is the estimated maximum velocity, [S] is the substrate concentration, and Km is the affinity constant of the substrate; Vmax1 and Vmax2 represent the estimated maximum velocity of the two metabolic phases; Ks1 and Ks2 represent the affinity constants for two metabolic phases; Ks and Ksi are the substrate affinity and inhibition constants, respectively.
(§6) The enzyme kinetics in oxidative metabolism and glucuronidation of toddalolactone were studied, and preliminary experiments were performed to ensure that metabolites were formed in the linear range of both reaction time and microsomal protein concentration. The metabolite with the largest peak area was used to calculate the kinetic parameter values (Km, Vmax and CLint). Based on the results of toddalolactone metabolism in different species, the kinetic parameter values in RLMs, DLMs, MLMs, HLMs, RAMs, MIMs, PLMs, CYP1A1 and CYP3A5 were calculated using P4, P4, P4, P4, P2, P2, P4, P4 and P4 data in oxidative metabolism, respectively. In the glucuronidation reaction, the kinetic parameter values in RLMs, MLMs, HLMs, RAMs and PLMs were calculated using P5, P6, P6, P6 and P5 data, respectively.

For another data set, the system named is MLMs. The data set is described as above. The settings on record: MLMs; for V max: toddalolactone 1–200 μM. The data set is classed as in vitro ADME. The procedure:
as §1, §4, §5, §6

The next data set relates to RLMs. As to the kind of experiment: Enzyme kinetics of toddalolactone metabolism in rat liver microsomes (oxidative metabolism and glucuronidation). Format: in vitro ADME. The settings on record: RLMs; for V max: toddalolactone 1–200 μM. Here is the method:
as §1, §4, §5, §6

Test in data set [3]: as above
Conditions: rat, liver microsomes, pH 7.4, RLMs, Vmax/Km. Format: in vitro ADME. Here is the method: as §1, §4, §5, §6

Details of data set [4]: method as in Zhou et al. ([2021]). Conditions: mouse blood; intravenous administration; ref Zhou et al. ([2021]); cited from earlier work.
Data set [5] is described as follows: Metabolic stability assessment in dog liver microsomes. Conditions: beagle, pH 7.4, DLMs, CYP incubation system, toddalolactone 20 μM, 0-90 min, read-out: half-life value (T1/2). Format: in vitro ADME. Here is the method:
as §1, with “NADPH or CYP enzyme sources were not used in the control group to ensure that the metabolic reactions were CYP- and NADPH-dependent. All incubation assays were completed in triplicate. The data are presented as mean ± standard deviation (SD).” left out
In the UGT reaction system, liver microsomes were incubated in 200 μL of the reaction system containing 4 mM UDPGA, 5 mM MgCl2, 20 µg/mL alamethicin, and 50 mM Tris-HCl buffer (pH 7.4). […] After centrifugation at 18,000 g for 15 min, 10 μL of the supernatant was analyzed by HPLC.
Toddalolactone (20 μM) was incubated with different liver microsomes, including HLMs, DLMs, PLMs, MLMs, RAMs, RLMs or MIMs in oxidative metabolism and glucuronidation reaction systems. […] The mixtures were centrifuged at 18,000 g for 15 min at 4 °C and then 10 μL of the supernatant was analyzed by HPLC. […]
The peak areas of toddalolactone and its metabolites were detected using a HPLC system (Shimadzu, Kyoto, Japan). […]

The mark [6] stands for this setting: P450-catalyzed oxidation, P4 formation.
Where [7] appears, read: glucuronide metabolism, P6 formation.
[8] abbreviates: glucuronide metabolism, P5 formation.

For the compound `COc1cc2oc(=O)ccc2c(OC)c1C[C@@H](O)C(C)(C)O` [toddalolactone], the K m with DLMs turned out to be 148.93 ± 38.37 µM; in the data set on MLMs (setting [6]), 255.67 ± 58.29 µM; in the data set on MLMs (setting [7]) it was 154.51 ± 42.46 µM; in the data set on RLMs (setting [6]), 121.13 ± 31.89 µM; with RLMs (setting [8]), 79.11 ± 22.56 µM. For the same compound, the V max was found to be 29.76 ± 7.27 pmol/min/mg protein in the data set with DLMs (toddalolactone 1–200 μM); 161.4 ± 25.73 pmol/min/mg protein with MLMs (setting [6]); 187.53 ± 27.77 pmol/min/mg protein in the data set with MLMs (setting [7]); 158.26 ± 20.52 pmol/min/mg protein with RLMs (setting [6]); 55.89 ± 6.61 pmol/min/mg protein with RLMs (setting [8]). For the same compound, the microsomal CLint in data set [1] is 0.19 µL/min/mg; in data set [2] (setting [6]), 0.63 µL/min/mg; in data set [2] (setting [7]) it was 1.21 µL/min/mg; in data set [3] (setting [6]), 1.31 µL/min/mg; in data set [3] (setting [8]), 0.69 µL/min/mg. Also, in data set [4], the t1/2 is recorded as 0.8 h. In addition, the half-life at 20 μM in data set [5] is 8.23 ± 0.7 h.
